Measured values published in patent US11224601B1, “Compounds that inhibits MCL-1 protein” (priority 2017, dated 2022).

These compounds were tested against recombinant human Mcl-1 (Mcl-1/Bim interaction) (Homo sapiens (Human), UniProt Q07820) (assay: biochemical). Details: cell free Mcl-1:Bim TR-FRET; read-out: Mcl-1 HTRF IC50.
recombinant human Mcl-1 (Mcl-1/Bim interaction), sequence (Q07820 171-327): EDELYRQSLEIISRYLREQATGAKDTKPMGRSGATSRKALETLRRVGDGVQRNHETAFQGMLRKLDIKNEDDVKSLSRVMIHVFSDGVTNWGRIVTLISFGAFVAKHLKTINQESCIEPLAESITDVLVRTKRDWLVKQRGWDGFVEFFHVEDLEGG
Assay type: binding
Experimental: Cell free Mcl-1:Bim Affinity Assay (Mcl-1 HTRF)
The inhibition of the Mcl-1/Bim interaction was measured using a time-resolved fluorescence resonance energy transfer (TR-FRET) assay. The recombinant human Mcl-1 (C-terminally 6×His tagged Mcl-1 containing residues 171-327) was generated at Amgen Inc (Thousand Oaks, Calif.). A biotinylated peptide derived from human Bim (residues 51-76) was purchased from CPC Scientific (San Jose, Calif.). The TR-FRET assay was conducted in a 384-well white OptiPlate™ (PerkinElmer, Waltham, Mass.) in a total volume of 40 μL. The reaction mixture contained 0.1 nM Mcl-1(171-327), 0.05 nM biotin-Bim(51-76), 0.05 nM LANCE® Eu-W1024 Anti-6×His (PerkinElmer), 0.072 nM Streptavidin-Xlent (Cisbio, Bedford, Mass.), and serially diluted test compounds in the binding buffer of 20 mM Hepes, pH 7.5, 150 mM NaCl, 0.016 mM Brij® 35, and 1 mM dithiothreitol. Test compounds were pre-incubated with Mcl-1(171-327) and biotin-Bim (51-76) for 60 min before addition of the detection mixture (LANCE® Eu-W1024 Anti-6×His and Streptavidin-Xlent). The reaction plates were further incubated overnight and then were read on an Envision® multimode reader (PerkinElmer). Fluorescence signals were measured at 620 nm (40-nm bandwidth) and 665 nm (7.5-nm bandwidth) with a 60 μs delay after excitation at 320 nm (75-nm bandwidth). The signal ratio at 665/620 nm corresponded to the Mcl-1/Bim interaction and was used in all data analyses. The IC50 values of test compounds were determined from duplicate data by analyzing competition curves using a four-parameter sigmoidal model in GraphPad Prism (GraphPad Software, San Diego, Calif.) or in Genedata Screener® (Genedata, Basel, Switzerland).
CO[C@@]1(CN2CCN3CCN(C(C)=O)C[C@@H]3C2)/C=C/C[C@H](C)[C@@H](C)S(=O)(=O)NC(=O)c2ccc3c(c2)N(C[C@@H]2CC[C@H]21)C[C@@]1(CCCc2cc(Cl)ccc21)CO3 (single isomer, unassigned) [Example 225] was tested, and the IC50 was 0.087 nM. With CO[C@@]1(CN2CCN3CCN(C(C)=O)C[C@@H]3C2)/C=C/C[C@H](C)[C@@H](C)S(=O)(=O)NC(=O)c2ccc3c(c2)N(C[C@@H]2CC[C@H]21)C[C@@]1(CCCc2cc(Cl)ccc21)CO3 (single isomer, unassigned) [Example 226] the IC50 was 0.057 nM. Work on CO[C@]1(CN2CCN3CCN(C(C)=O)C[C@@H]3C2)/C=C/C[C@H](C)[C@@H](C)S(=O)(=O)NC(=O)c2ccc3c(c2)N(C[C@@H]2CC[C@H]21)C[C@@]1(CCCc2cc(Cl)ccc21)CO3 (single isomer, unassigned) [Example 229] yielded an IC50 of 0.619 nM. CO[C@]1(CN2CCN3CCN(C(C)=O)C[C@@H]3C2)/C=C/C[C@H](C)[C@@H](C)S(=O)(=O)NC(=O)c2ccc3c(c2)N(C[C@@H]2CC[C@H]21)C[C@@]1(CCCc2cc(Cl)ccc21)CO3 (single isomer, unassigned) [Example 230] showed an IC50 of 0.051 nM. C[C@@H]1[C@@H](C)C/C=C/C(O)(CN2CCN3CCCC[C@@H]3C2)[C@@H]2CC[C@H]2CN2C[C@@]3(CCCc4cc(Cl)ccc43)COc3ccc(cc32)C(=O)NS1(=O)=O (single isomer, unassigned) [Example 242] was tested, and the IC50 was 0.249 nM. Work on C[C@@H]1[C@@H](C)C/C=C/C(O)(CN2CCN3CCCC[C@@H]3C2)[C@@H]2CC[C@H]2CN2C[C@@]3(CCCc4cc(Cl)ccc43)COc3ccc(cc32)C(=O)NS1(=O)=O (single isomer, unassigned) [Example 243] yielded an IC50 of 0.078 nM. CO[C@@]1(CN2CCN3CCN(C(C)=O)C[C@@H]3C2)/C=C/C[C@H](C)[C@@H](C)S(=O)(=O)NC(=O)c2ccc3c(c2)N(C[C@@H]2CC[C@H]21)C[C@@]1(CCCc2cc(Cl)ccc21)CO3 (stereo in doubt) [Example 214] was tested, and the IC50 was 0.071 nM. Work on CO[C@]1(CN2CCN3CCS(=O)(=O)C[C@@H]3C2)/C=C/C[C@H](C)[C@@H](C)S(=O)(=O)NC(=O)c2ccc3c(c2)N(C[C@@H]2CC[C@H]21)C[C@@]1(CCCc2cc(Cl)ccc21)CO3 (stereo in doubt) [Example 215] yielded an IC50 of 0.149 nM. CO[C@]1(CN2CCN3CCS(=O)(=O)C[C@@H]3C2)/C=C/C[C@H](C)[C@@H](C)S(=O)(=O)NC(=O)c2ccc3c(c2)N(C[C@@H]2CC[C@H]21)C[C@@]1(CCCc2cc(Cl)ccc21)CO3 (stereo in doubt) [Example 219] showed an IC50 of 0.073 nM. CO[C@@]1(CN2CCN3CCN(S(C)(=O)=O)C[C@@H]3C2)/C=C/C[C@H](C)[C@@H](C)S(=O)(=O)NC(=O)c2ccc3c(c2)N(C[C@@H]2CC[C@H]21)C[C@@]1(CCCc2cc(Cl)ccc21)CO3 (stereo in doubt) [Example 228] showed an IC50 of 0.2 nM. With CCO[C@]1(CN2CCN(C(C)(C)C)CC2)/C=C/C[C@H](C)[C@@H](C)S(=O)(=O)NC(=O)c2ccc3c(c2)N(C[C@@H]2CC[C@H]21)C[C@@]1(CCCc2cc(Cl)ccc21)CO3 [Example 6, (1S,3′R,6′R,7′R,8′E,11′S,12′R)-7′-((4-tert-butyl-1-piperazinyl)methyl)-6-chloro-7′-ethoxy-11′,12′-dimethyl-3,4-dihydro-2H,15′H-spiro[naphthalene-1,22′-[20]oxa[13]thia[1,14]diazatetracyclo[14.7.2.0˜3,6˜.0˜19,24˜]pentacosa[8,16,18,24]tetraen]-15′-one 13′,13′-dioxide] the IC50 was 0.079 nM. COCC[C@@H]1[C@@H](C)C/C=C/[C@@](CN2CCN(C(C)C)[C@H](C)C2)(OC)[C@@H]2CC[C@H]2CN2C[C@@]3(CCCc4cc(Cl)ccc43)COc3ccc(cc32)C(=O)NS1(=O)=O [Example 12, (1S,3′R,6′R,7′R,8′E,11′S,12′R)-6-chloro-7′-methoxy-12′-(2-methoxyethyl)-11′-methyl-7′-(((3R)-3-methyl-4-(1-methylethyl)-1-piperazinyl)methyl)-3,4-dihydro-2H,15′H-spiro[naphthalene-1,22′-[20]oxa[13]thia[1,14]diazatetracyclo[14.7.2.0˜3,6˜.0˜19,24˜]pentacosa[8,16,18,24]tetraen]-15′-one 13′,13′-dioxide] was tested, and the IC50 was 0.072 nM. Compound CCO[C@]1(CN2CCN3CCCC[C@@H]3C2)/C=C/C[C@H](C)[C@@H](CCOC)S(=O)(=O)NC(=O)c2ccc3c(c2)N(C[C@@H]2CC[C@H]21)C[C@@]1(CCCc2cc(Cl)ccc21)CO3 [Example 15, (1S,3′R,6′R,7′R,8′E,11′S,12′R)-6-chloro-7′-ethoxy-12′-(2-methoxyethyl)-11′-methyl-7′-((9aR)-octahydro-2H-pyrido[1,2-a]pyrazin-2-ylmethyl)-3,4-dihydro-2H,15′H-spiro[naphthalene-1,22′-[20]oxa[13]thia[1,14]diazatetracyclo[14.7.2.0˜3,6˜.0˜19,24˜]pentacosa[8,16,18,24]tetraen]-15′-one 13′,13′-dioxide] has an IC50 of 0.119 nM. CCO[C@]1(CN2CCN(C(C)C)CC2)/C=C/C[C@H](C)[C@@H](CCOC)S(=O)(=O)NC(=O)c2ccc3c(c2)N(C[C@@H]2CC[C@H]21)C[C@@]1(CCCc2cc(Cl)ccc21)CO3 [Example 16, (1S,3′R,6′R,7′R,8′E,11′S,12′R)-6-chloro-7′-ethoxy-12′-(2-methoxyethyl)-11′-methyl-7′-((4-(1-methylethyl)-1-piperazinyl)methyl)-3,4-dihydro-2H,15′H-spiro[naphthalene-1,22′-[20]oxa[13]thia[1,14]diazatetracyclo[14.7.2.0˜3,6˜.0˜19,24˜]pentacosa[8,16,18,24]tetraen]-15′-one 13′,13′-dioxide] showed an IC50 of 0.065 nM. In the case of CO[C@@]1(CN2CCN(C3COC3)CC2)/C=C/C[C@H](C)[C@@H](C)S(=O)(=O)NC(=O)c2ccc3c(n2)N(C[C@@H]2CC[C@H]21)C[C@@]1(CCCc2cc(Cl)ccc21)CO3 [Example 19, (1S,3′R,6′R,7′S,8′E,11′S,12′R)-6-chloro-7′-methoxy-11′,12′-dimethyl-7′-((4-(3-oxetanyl)-1-piperazinyl)methyl)-3,4-dihydro-2H,15′H-spiro[naphthalene-1,22′-[20]oxa[13]thia[1,14,25]triazatetracyclo[14.7.2.0˜3,6˜.0˜19,24˜]pentacosa[8,16,18,24]tetraen]-15′-one 13′,13′-dioxide], the IC50 is reported as 0.125 nM. Compound CC[C@@H]1CC/C=C/[C@@](CN2CCN3CCCC[C@@H]3C2)(OC)[C@@H]2CC[C@H]2CN2C[C@@]3(CCCc4cc(Cl)ccc43)COc3ccc(cc32)C(=O)N(C)S1(=O)=O [Example 33, (1S,3′R,6′R,7′R,8′E,12′R)-6-chloro-12′-ethyl-7′-methoxy-14′-methyl-7′-((9aR)-octahydro-2H-pyrido[1,2-a]pyrazin-2-ylmethyl)-3,4-dihydro-2H,15′H-spiro[naphthalene-1,22′-[20]oxa[13]thia[1,14]diazatetracyclo[14.7.2.0˜3,6˜.0˜19,24˜]pentacosa[8,16,18,24]tetraen]-15′-one 13′,13′-dioxide] has an IC50 of 8.25 nM. Work on C[C@@H]1[C@@H](C)C/C=C/[C@@](O)(CN2CCOC[C@@H]2Cn2ccnc2)[C@@H]2CC[C@H]2CN2C[C@@]3(CCCc4cc(Cl)ccc43)COc3ccc(cc32)C(=O)NS1(=O)=O [Example 100, (1S,3′R,6′R,7′S,8′E,11′S,12′R)-6-chloro-7′-hydroxy-7′-(((3S)-3-(1H-imidazol-1-ylmethyl)-4-morpholinyl)methyl)-11′,12′-dimethyl-3,4-dihydro-2H,15′H-spiro[naphthalene-1,22′-[20]oxa[13]thia[1,14]diazatetracyclo[14.7.2.0˜3,6˜.0˜19,24˜]pentacosa[8,16,18,24]tetraen]-15′-one 13′,13′-dioxide] yielded an IC50 of 0.188 nM. In the case of C[C@@H]1[C@@H](C)C/C=C/[C@@](O)(CNC(C)(C)C)[C@@H]2CC[C@H]2CN2C[C@@]3(CCCc4cc(Cl)ccc43)COc3ccc(cc32)C(=O)NS1(=O)=O [Example 125, (1S,3′R,6′R,7′S,8′E,11′S,12′R)-7′-((tert-butylamino)methyl)-6-chloro-7′-hydroxy-11′,12′-dimethyl-3,4-dihydro-2H,15′H-spiro[naphthalene-1,22′-[20]oxa[13]thia[1,14]diazatetracyclo[14.7.2.0˜3,6˜.0˜19,24˜]pentacosa[8,16,18,24]tetraen]-15′-one 13′,13′-dioxide], the IC50 is reported as 6.1 nM. For CC(C)N(CCO)C[C@]1(O)/C=C/C[C@H](C)[C@@H](C)S(=O)(=O)NC(=O)c2ccc3c(c2)N(C[C@@H]2CC[C@H]21)C[C@@]1(CCCc2cc(Cl)ccc21)CO3 [Example 126, (1S,3′R,6′R,7′S,8′E,11′S,12′R)-6-chloro-7′-hydroxy-7′-(((2-hydroxyethyl)(1-methylethyl)amino)methyl)-11′,12′-dimethyl-3,4-dihydro-2H,15′H-spiro[naphthalene-1,22′-[20]oxa[13]thia[1,14]diazatetracyclo[14.7.2.0˜3,6˜.0˜19,24˜]pentacosa[8,16,18,24]tetraen]-15′-one 13′,13′-dioxide], the IC50 was 0.627 nM. For C[C@@H]1[C@@H](C)C/C=C/[C@]2(CN(Cc3ccccc3)CCO2)[C@@H]2CC[C@H]2CN2C[C@@]3(CCCc4cc(Cl)ccc43)COc3ccc(cc32)C(=O)NS1(=O)=O [Example 138, (1S,3′R,6′R,7′R,8′E,11′S,12′R)-4″-benzyl-6-chloro-11′,12′-dimethyl-3,4-dihydro-2H,15′H-dispiro[naphthalene-1,22′-[20]oxa[13]thia[1,14]diazatetracyclo[14.7.2.0˜3,6˜.0˜19,24˜]pentacosa[8,16,18,24]tetraene-7′,2″-[1,4]oxazinan]-15′-one 13′,13′-dioxide], the IC50 was 26.7 nM. With CO[C@@]1(CN2CCN(CC(=O)O)CC2)/C=C/C[C@H](C)[C@@H](C)S(=O)(=O)NC(=O)c2ccc3c(c2)N(C[C@@H]2CC[C@H]21)C[C@@]1(CCCc2cc(Cl)ccc21)CO3 [Example 270, (4-(((1S,3′R,6′R,7′S,8′E,11′S,12′R)-6-chloro-7′-methoxy-11′,12′-dimethyl-13′,13′-dioxido-15′-oxo-3,4-dihydro-2H-spiro[naphthalene-1,22′-[20]oxa[13]thia[1,14]diazatetracyclo[14.7.2.0˜3,6˜.0˜19,24˜]pentacosa[8,16,18,24]tetraen]-7′-yl)methyl)-1-piperazinyl)acetic acid] the IC50 was 0.035 nM.
